In patent publication US6949575B2, “Method of inhibiting amyloid protein aggregation and imaging amyloid deposits using aminoindane derivatives” (Pfizer Inc., priority 2000, dated 2005):
Where “and” joins values, the source holds several entries; their conditions need not be identical. Equal entries are not always repeated.

What was measured:
Soluble Aβ(1-40) peptide = biological target: T1, Soluble Aβ(1-40) peptide (Homo sapiens, UniProt P05067); assay: BASSR (Beta-Amyloid Self-Seeding Radioassay): inhibitors of self-seeded amyloid fibril growth; format: biochemical; settings: 30 μM soluble Aβ(1-40) + 125I-labeled Aβ(1-40), 37° C., 3 to 5 hours, filtration; replicate values
T1 construct: Soluble Aβ(1-40) peptide; purchased Bachem, Torrance, Calif
T1 sequence (P05067 672-711 limits assumed): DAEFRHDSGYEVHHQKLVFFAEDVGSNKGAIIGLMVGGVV
Method: BASSR (Beta-Amyloid Self-Seeding Radioassay)
An assay for inhibitors of self-seeded amyloid fibril growth
Assay Buffer—[…] sodium phosphate, pH 7.5, 100 mM NaCl, 0.02% NaN3, 1 M urea (filter and store at 4° C.)
Soluble Aβ(1-40) peptide (Bachem, Torrance, Calif.)—2.2 mg/mL in deionized H2O (stored in aliquots at −20° C., keep on ice when thawed) will self-seed after 1 week storage. Typically, the solution should be stored until no lag phase is seen in the assay.
^125I-labeled Aβ(1-40)—150 to 350K cpm/μL in 100% acetonitrile—0.1% trifluoroacetic acid (TFA)—1% β-mercaptoethanol (aliquots stored at −20° C.). ^125I-labeled Aβ(1-40) can be made in accordance with the procedure set forth by H. Levine, III in Neurobiol. Aging, 16:755 (1995), which is hereby incorporated by reference, or this reagent may be purchased from Amersham, Arlington Heights, Ill. Final assay conditions: 30 μM soluble Aβ(1-40) in deionized water in assay buffer+20 to 50K cpm ^125I-labeled Aβ(1-40) per assay. Compound to be tested is dissolved in dimethylsulfoxide (DMSO), typically 5 to 50 mM stock, such that the final concentration of DMSO is <1% v/v in the assay. Assay: Reaction mixture for 50 assays (on ice) is comprised of 0.1 to 0.2 μL of ^125I-labeled A^125I-labeled Aβ(1-40)+1 μL of soluble Aβ(1-40)+13.5 μL assay buffer per assay. The following are the amounts of the components of the reaction mixture sufficient for 50 assay wells.
• 1) Prepare reaction mixture above by mixing components and storing on ice. • 2) Pipet 14.5 μL of reaction mixture into each of 50 wells on a polypropylene U-bottom 96-well microtiter plate on ice (Costar 3794). • 3) Add 1.7 μL of diluted compound to be tested to each well in a column of eight, including solvent control. Serial 3-fold dilutions from 1 mM (100 μM final) in assay buffer-urea=7 dilutions+zero. Each 96-well plate can therefore accommodate 11 samples+1 Congo Red control (0.039-5 μM final in 2-fold steps). • 4) Seal the plate with aluminum film (Beckman 538619) and incubate for 10 minutes on ice. • 5) Raise the temperature to 37° C. and incubate for 3 to 5 hours (depending on the lot of the peptide). • 6) Remove the aluminum film and add 200 μL/well of ice cold assay buffer with urea, collecting the radiolabeled fibrils by vacuum filtration through 0.2-μm pore size GVWP filters in 96-well plates (Millipore MAGV N22, Bedford, Mass.). Determine the radioactivity of the filters using standard methods well-known to those skilled in the art. BASST (Beta-Amyloid Self-Seeding, Thioflavin T)

Aβ (1-40) peptide = biological target: T2, Aβ (1-40) peptide (Homo sapiens, UniProt P05067); assay: BAPA (Beta-Amyloid Peptide Aggregation, pH 6.0), filtration endpoint; format: biochemical; settings: Aβ(1-40) 33 μM, pH 6.0, 2 to 4 hours, room temperature
T2 construct: Aβ (1-40) peptide in 20% HFIP
T2 sequence (P05067 672-711 limits assumed): as above
Method: • 1) Prepare the reaction mix above by mixing the components and storing on ice. • 2) Pipet 14.5 μL of reaction mixture into each of 50 wells of a polystyrene U-bottom 96-well microtiter plate (Coming 25881-96) on ice. • 3) Add 1.7 μL of diluted compound to be tested to each well in a column of eight, including solvent control. Serial 3-fold dilutions from 1 mM (100 μM final) in assay buffer-urea=7 dilutions+zero. Each 96-well plate can therefore accommodate 11 samples+1 Congo Red control (0.039-5 μM final in 2-fold steps). • 4) Seal the plate with aluminum film and incubate for 10 minutes on ice. • 5) Raise the temperature to 37° C. and incubate for 3 to 5 hours (depends on the lot of the peptide). • 6) Remove the aluminum film and add 250 μL/well of 5 μM thioflavin T (ThT) [T-3516, Sigma-Aldrich] in 50 mM glycine-NaOH, pH 8.5. Read fluorescence on a plate reader (ex=440 nm/20 nm; em=485 nm/20 nm) within 5 minutes. BAPA (Beta-Amyloid Peptide Aggregation) This assay is used to provide a measure of inhibition by a compound against the aggregation behavior of the β-amyloid peptide. The purpose of this assay is to provide a higher volume method of assaying the amount of β-amyloid aggregation using an endpoint assay based on filtration. In this assay, hexafluoroisopropanol (HFIP) is used to break down the initial amyloid peptide to a monomer state and use a concentration of 33 μM which is high enough so that aggregation will occur at pH 6.0 in several hours. Methods: Beta-Amyloid Peptide Aggregation, pH 6.0 (BAPA) In a 96-well plate (Costar 3794), we add 25 μL 50 mM phosphate buffer, pH 6.0, 10 μL 0.5 mg/mL Aβ (1-40) peptide in 20% HFIP+0.1 μL/assay radioiodinated ^125I Aβ (1-40) [^125I Aβ(1-40)], and 1 μL of the compound to be tested starting at 50 mM with a concentration of DMSO<1%. Then, we incubate for 2 to 4 hours at room temperature. We stop the reaction with 200 μL of 50 mM phosphate buffer, pH 6.0, and filter it through a 0.2 μm 96-well filter plate (Millipore MAGU […]). We wash the filter plate with 100 μL of the same phosphate buffer. Aggregation was detected on a Microbeta counter after impregnating the filters with Meltilex (1450-441) and is corrected for background.

SMILES | IC50 (Soluble Aβ(1-40) peptide) | IC50 (Aβ (1-40) peptide) [µM]
COc1ccc(Nc2ccc3c(c2)CC(NCc2ccc(Cl)c(Cl)c2)C3)c(C(=O)O)c1 (stereo not drawn) [Example 5, 2-[2-(3,4-Dichlorobenzylamino)-indan-5-ylamino]-5-methoxy-benzoic acid] | > 100 µM (2×) and 30 µM | 165
O=C(O)c1cc([N+](=O)[O-])ccc1Nc1ccc2c(c1)CC(NCc1ccc(F)cc1)C2 (stereo not drawn) [Example 10, 2-[2-(4-Fluorobenzylamino)-indan-5-ylamino]-5-nitro-benzoic acid] | > 100 µM (2×) and 90 µM and 10 µM | > 100
CCCCCN(CCCCC)C1Cc2ccc(Nc3ccc([N+](=O)[O-])cc3C(=O)O)cc2C1 (stereo not drawn) [Example 1, 2-[(2-N,N-di-n-pentylamino)-indan-5-yl]amino-5-nitro-benzoic Acid] | > 100 µM | 33
CCCCCN(CCCCC)C1Cc2ccc(Nc3ccc(C)cc3C(=O)O)cc2C1 (stereo not drawn) [Example 6, 2-(2-Dipentylamino-indan-5-yl-amino)-5-methyl-benzoic acid] | > 100 µM | 118
CCCCCN(CCCCC)C1Cc2ccc(Nc3ccc(C(=O)O)cc3[N+](=O)[O-])cc2C1 (stereo not drawn) [Example 7, 4-(2-Dipentylamino-indan-5-yl-amino)-3-nitro-benzoic Acid] | > 100 µM (3×) and 15 µM | 118
CCCCCNC1Cc2ccc(Nc3ccc([N+](=O)[O-])cc3C(=O)O)cc2C1 (stereo not drawn) [Example 12, 2-[2-(n-Pentylamino)-indan-5-ylamino]-5-nitro-benzoic acid] | > 100 µM | 5
